Structures are written as SMILES.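 Grown in 96-well plates, cells were treated for 48 hours with each compound at five concentrations. Insufficient inhibition: endpoint recorded as highest concentration tested. Here, GI50 denotes the concentration required for 50% inhibition of growth.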 The source made the active and inactive calls. Rule as the data show it: active = GI50 up to about 1.1 µM and inactive = higher. Bounds are passed on as bounds.

Some test systems named below: M14; LOX IMVI; TK-10; SNB-75; SNB-19; HCT-116; SK-MEL-28; OVCAR-4; SR; HL-60; UACC-257; NCI-H522; EKVX; COLO 205; SW-620; NCI-H460; SK-MEL-2; PC-3; MCF7.
Common to all, as to test: inhibition of tumour cell growth, NCI panel, 48 h

In the case of `O=C1N/C(=C\[N+](=O)[O-])c2ccccc21`, the GI50 in the assay on M14 is > 100 µM (inactive); with LOX IMVI it was > 100 µM (inactive); in the assay on TK-10, > 100 µM (inactive); in the assay with SNB-75, 25.9 µM (inactive); in the assay on SNB-19 it was > 100 µM (inactive); with HCT-116 it was > 100 µM (inactive). For the same molecule, the GI50 with SK-MEL-28, with OVCAR-4, in the assay on SR, with HL-60, in the assay with UACC-257 and with NCI-H522 was > 100 µM (inactive) in each case. The GI50 in the assay on EKVX, in the assay on COLO 205, in the assay on SW-620 and in the assay with NCI-H460 was > 100 µM (inactive) in each case.
As to `NC(=S)N/N=C1/C(=O)N(c2ccccc2)C(=O)C1C(=O)Nc1ccccc1` (stereo not given), the GI50 with M14, in the assay with TK-10, with SNB-75, with SNB-19, with HCT-116 and in the assay with SK-MEL-28 was > 100 µM (inactive) throughout. The GI50 in the assay with OVCAR-4, in the assay on SR, with HL-60, in the assay with UACC-257, in the assay on NCI-H522 and in the assay with EKVX was > 100 µM (inactive) in each case. The GI50 with COLO 205, with SK-MEL-2, in the assay on SW-620 and in the assay on NCI-H460 was > 100 µM (inactive) throughout.
Regarding `O=S(=O)(c1ccc(/N=C2\NC(c3ccc(O)cc3)(c3ccccc3O)c3ccccc32)cc1)c1ccc(/N=C2/NC(c3ccc(O)cc3)(c3ccccc3O)c3ccccc32)cc1` (stereo not given), the GI50 with M14 was 3.87 µM (inactive); with PC-3, 5.05 µM (inactive); in the assay with LOX IMVI it was 2.96 µM (inactive); with TK-10, 13.8 µM (inactive); in the assay with SNB-75 it was 3.32 µM (inactive); in the assay with SNB-19, 5.08 µM (inactive). Besides, the GI50 in the assay with HCT-116 is 2.23 µM (inactive); in the assay with OVCAR-4 it was 2.87 µM (inactive); in the assay on SR, 5.38 µM (inactive); with HL-60, 1.02 µM (active); in the assay with UACC-257 it was 5.02 µM (inactive); in the assay on MCF7 it was 3.95 µM (inactive). The GI50 in the assay on NCI-H522 is 2.02 µM (inactive); in the assay on EKVX, 5.96 µM (inactive); with COLO 205, 3.56 µM (inactive); in the assay on SK-MEL-2, 3.73 µM (inactive); with NCI-H460, 3.7 µM (inactive).
Consider `COc1cc(NS(C)(=O)=O)ccc1NCc1c2ccccc2nc2ccccc12`, for which the GI50 with M14 is 52.6 µM (inactive); in the assay with LOX IMVI, 23.2 µM (inactive); in the assay on TK-10, > 100 µM (inactive); in the assay with SNB-75 it was > 100 µM (inactive); with SNB-19 it was 51.8 µM (inactive); with HCT-116, 3.45 µM (inactive). The GI50 in the assay on SK-MEL-28 was 49.7 µM (inactive); in the assay with OVCAR-4, 0.0571 µM (active); with SR, 4.71 µM (inactive); with HL-60, 13.5 µM (inactive); in the assay with UACC-257 it was 32.9 µM (inactive); in the assay on NCI-H522, 24.3 µM (inactive). For the same molecule, the GI50 in the assay with EKVX is 42.6 µM (inactive); in the assay on COLO 205 it was 70.1 µM (inactive); with SK-MEL-2, 44.4 µM (inactive); in the assay on SW-620 it was 26.7 µM (inactive); in the assay on NCI-H460, 34.5 µM (inactive).
For `O=[N+]([O-])CCc1cccc([N+](=O)[O-])c1`, the GI50 with M14, with LOX IMVI, in the assay with TK-10, in the assay with SNB-75, with SNB-19 and in the assay with HCT-116 was > 100 µM (inactive) each time. Further, the GI50 with SK-MEL-28, with OVCAR-4, in the assay on SR, in the assay with HL-60, in the assay with UACC-257 and with NCI-H522 was > 100 µM (inactive) in each case. Also, the GI50 with EKVX was > 100 µM (inactive); in the assay on COLO 205, > 100 µM (inactive); in the assay on SK-MEL-2 it was > 100 µM (inactive); in the assay with SW-620, 9.44 µM (inactive); in the assay on NCI-H460, > 100 µM (inactive).
Consider `COc1ccc(/C=C/C(=O)c2sc(NC(=S)NC(=O)c3ccc(Cl)cc3)nc2C)cc1OC`, for which the GI50 in the assay with M14 is 52.6 µM (inactive); with LOX IMVI, 32.2 µM (inactive); in the assay with TK-10 it was > 100 µM (inactive); with SNB-19, 40.5 µM (inactive); in the assay with HCT-116, 51.4 µM (inactive); in the assay on SK-MEL-28 it was 35.9 µM (inactive). Further, the GI50 in the assay on OVCAR-4 is 52.5 µM (inactive); with SR it was 32 µM (inactive); with HL-60 it was 30.3 µM (inactive); in the assay on UACC-257, 47.5 µM (inactive); in the assay with NCI-H522, > 10 µM (inactive); with EKVX, 66.8 µM (inactive). In addition, the GI50 in the assay on COLO 205 was 37.2 µM (inactive); in the assay with SK-MEL-2, 47.1 µM (inactive); in the assay with SW-620 it was 55.7 µM (inactive); with NCI-H460 it was 84.7 µM (inactive).
As for `COc1ccc(C(C#N)NNc2nc(C)cc(O)n2)cc1OC` (stereo not given), the GI50 is > 100 µM (inactive) in the assay on M14; > 100 µM (inactive) in the assay with LOX IMVI; > 100 µM (inactive) with TK-10; 71.9 µM (inactive) with SNB-75; > 100 µM (inactive) in the assay on HCT-116; > 100 µM (inactive) with SK-MEL-28. Besides, the GI50 with OVCAR-4, with SR, with HL-60, in the assay with UACC-257, in the assay on NCI-H522 and in the assay on COLO 205 was > 100 µM (inactive) each time. Besides, the GI50 with SK-MEL-2, in the assay with SW-620 and with NCI-H460 was > 100 µM (inactive) each time.
On to `Nc1c(-c2ccccc2-c2c(N)[n+]([O-])c3ccccc3[n+]2[O-])[n+]([O-])c2ccccc2[n+]1[O-]`, for which the GI50 was 12.2 µM (inactive) in the assay with M14; 8.83 µM (inactive) in the assay with LOX IMVI; 33.7 µM (inactive) with TK-10; 22.2 µM (inactive) in the assay with SNB-75; 7.91 µM (inactive) in the assay on SNB-19; 6.71 µM (inactive) with HCT-116. For the same molecule, the GI50 in the assay on SK-MEL-28 was 23 µM (inactive); in the assay on OVCAR-4 it was 4.89 µM (inactive); in the assay with SR, 4.3 µM (inactive); in the assay with HL-60 it was 3.69 µM (inactive); in the assay on UACC-257, 7.45 µM (inactive); in the assay on NCI-H522 it was 2.06 µM (inactive). Also, the GI50 in the assay on EKVX was 5.37 µM (inactive); with COLO 205, 4.69 µM (inactive); in the assay on SK-MEL-2, 34.8 µM (inactive); with SW-620 it was 8.45 µM (inactive); with NCI-H460, 2.51 µM (inactive).
`CC1CCC2(C)C(CC=C(C=O)C2(O)C=O)C12CO2` (stereo not given): the GI50 in the assay with M14 is 1.36 µM (inactive); with LOX IMVI, 2.69 µM (inactive); in the assay on TK-10 it was 1.97 µM (inactive); in the assay on SNB-19 it was 9.66 µM (inactive); in the assay on HCT-116, 1.49 µM (inactive); in the assay on SK-MEL-28, 1.79 µM (inactive). Also, the GI50 was 2.23 µM (inactive) with OVCAR-4; 1.71 µM (inactive) with SR; 0.877 µM (active) with HL-60; 1.52 µM (inactive) with UACC-257; 2.31 µM (inactive) in the assay with NCI-H522; 6.98 µM (inactive) with EKVX. Moreover, the GI50 is 1.33 µM (inactive) in the assay with COLO 205, 2.52 µM (inactive) with SK-MEL-2, 2.36 µM (inactive) in the assay with SW-620 and 2.57 µM (inactive) in the assay with NCI-H460.
On to `O=C1N=C2SC(=S)N=C(S)N2NC12c1ccccc1-c1ccccc12`, for which the GI50 is > 10 µM (inactive) in the assay on M14; > 10 µM (inactive) in the assay on LOX IMVI; > 10 µM (inactive) with TK-10; > 10 µM (inactive) in the assay on SNB-75; 5.13 µM (inactive) in the assay with OVCAR-4; > 10 µM (inactive) in the assay with SR. Besides, the GI50 with HL-60 is > 10 µM (inactive); in the assay with UACC-257, 5.68 µM (inactive); with MCF7 it was 6.81 µM (inactive); in the assay on EKVX it was 3.67 µM (inactive); in the assay on COLO 205, > 10 µM (inactive); with SW-620, > 10 µM (inactive). Also, the GI50 in the assay with NCI-H460 was 0.736 µM (active).
Regarding `COc1ccc(C2=NOP(c3ccccc3)(c3ccccc3)(c3ccccc3)C2)cc1`, the GI50 with M14 was 10.8 µM (inactive); with LOX IMVI it was 10.1 µM (inactive); in the assay with TK-10, > 65.6 µM (inactive); with SNB-75, 33 µM (inactive); with SNB-19, 51.4 µM (inactive); in the assay with HCT-116, 2.39 µM (inactive). Also, the GI50 is 27.9 µM (inactive) in the assay with SK-MEL-28; 29.6 µM (inactive) with OVCAR-4; 7.46 µM (inactive) in the assay with SR; 2.13 µM (inactive) with HL-60; 28.8 µM (inactive) in the assay with UACC-257; 7.91 µM (inactive) in the assay with NCI-H522. Further, the GI50 in the assay with EKVX was 63.1 µM (inactive); with COLO 205 it was 9.64 µM (inactive); in the assay on SK-MEL-2, 7.08 µM (inactive); in the assay on SW-620, 16.2 µM (inactive); with NCI-H460, 9.31 µM (inactive).
Regarding `O=C(Cc1ccccc1)NNc1nc(NNC(=O)c2ccncc2)nc(Nc2ccc(Cl)cc2)n1`, the GI50 in the assay with M14, with LOX IMVI, with TK-10, in the assay on SNB-75, in the assay on SK-MEL-28 and with OVCAR-4 was > 10 µM (inactive) each time. Further, the GI50 in the assay with SR, with HL-60, with UACC-257, in the assay on MCF7, in the assay with EKVX and in the assay with COLO 205 was > 10 µM (inactive) throughout. Also, the GI50 in the assay with SW-620 is > 10 µM (inactive).

Values taken from ChEMBL document CHEMBL1201862, “PubChem BioAssay data set” (2004).
